The values below are quoted from earlier work in publication PMC11261124 (Poultry Science, 2024).

pIC50: −log10 of the molar value.

For one series, the system named is HSV-2. The note with it: read-out: IC50 against HSV-2.

For `COc1ccc2c(c1)[nH]c1c(C)nccc12` [Harmine], in the series on HSV-2, the pIC50 (in general, −log10 of the IC50, conventionally taken in molar units) was 5.83. Take `COc1cn2c3ccccc3c3ccnc(c1=O)c32` [Drymaritin]: the “anti-HIV activity IC50” value in the series on HIV is 0.699 µg/mL.
